According to patent US20160166532A1, “CARNITINE PALMITOYLTRANSFERASE 1 INHIBITORS FOR INHIBITION OF PATHOLOGICAL ANGIOGENESIS” (VIB VZW, priority 2013, published 2016):
Where two headings read alike, the source gives them in different places.

How the values were obtained:
EC spheroids = experiment: In vitro EC spheroid sprouting assay; format: cell-based
From the text: (§1) In angiogenic EC monolayers, CPT1a knock down (KD) reduced EC proliferation by 40% as measured by ^3H thymidine incorporation (see FIG. 2). Furthermore, CPT1a KD EC were found more frequently in the G0/G1 phase of the cell cycle. EC migration on the other hand was not affected as measured by scratch wound assay and modified Boyden chamber even when proliferation was blocked using mitomycin C (see FIG. 3). To study the effect of CPT1a KD on vessel sprouting, an in vitro EC spheroid sprouting assay was employed. In this model, EC are cultured in suspension to form spheroids in hanging drops, embedded in a collagen I matrix and subsequently stimulated with growth factors to allow sprouts to be formed. In this model, a tip cell with filopodia leads the sprout while the stalk cells trail behind and proliferate to elongate the sprout. […] To further investigate this observation, a mosaic spheroid model was employed to assess tip cell competition. Here, 50% WT^RED and 50% WT^GFP cells are mixed and, when the spheroids have sprouted, which one is at the tip is determined. In this model, tip cell position can be determined via migration and/or proliferation. In case of a WT/WT mixture, 50% green and 50% red cells are at the tip. However, when 50% WT^RED cells are mixed with 50% CPT1a^KD/GFP cells, less green cells were present at the tip. This effect was abrogated when spheroids were treated with mitomycin C.

[1] = Palmitate uptake and incorporation in organs; format: in vivo, mice; details: pups
[2] = Tolerability in etomoxir-treated pups (body weight, heart H&E staining); format: in vivo, mice
[3] = tested on: choroidal neovascularization (CNV) in male C57BL/6 mice; experiment: Laser-induced choroidal neovascularization (CNV) model; format: in vivo; details: 35 mg/kg i.p. daily, two weeks, vs vehicle
From the text: The protein extravasation and hemorrhage associated with choroidal neovascularization (CNV) are primary causes of severe vision loss in retinal diseases such as age-related macular degeneration (ARMD). In ARMD the normal barrier function of Bruch's membrane is compromised, and CNV can develop, either under the retinal pigment epithelium (RPE) or photoreceptor outer segments. The choroidal neovascularization model serves as a reliable disease model for macular degeneration. Choroidal neovascularization (CNV) is induced in mice by laser burn. Laser burn (400 mW) is performed with Alcon PUREPOINT® equipment. CNV is measured by investigators masked to treatment. Eyes are enucleated after retrobulbar perfusion with FITC-dextran (HMW) and flat mounted. The CNV area, total lesion area, and their ratio are analyzed using Zeiss Axio Imager Z1 microscope with macros (KS300 image analysis software) on FITC-perfused (200 μL; 25 mg/mL; 10 minutes) flat mounts. The intraocular administration of siRNAs directed against CPT1a or the use of chemical inhibitors against CPT1a, is carried out, prior to or shortly after the induction of the laser burn, in the above-described murine model for age-related macular degeneration. […]

endothelial cells (ECs) = experiment: 3H palmitate oxidation assay (fatty acid oxidation, 3H-9,10-palmitic acid tracer); format: cell-based
From the text: (§2) CPT1 enzymes are rate limiting for fatty acid oxidation and, of the three isoforms, CPTla is the most abundant in ECs. To explore the functional relevance of CPT1a in ECs, its expression was compared in quiescent versus angiogenic EC monolayers. Strikingly, CPT1a RNA and protein levels were increased during contact inhibition—an in vitro model of quiescence—when compared to proliferating/migrating ECs. […] To correlate these expression levels to functional relevance, fatty acid oxidation was measured using a ^3H-9,10-palmitic acid tracer. […] To confirm that fatty acid oxidation in ECs is primarily CPT1a driven, its expression was blocked using a shRNA directed against CPT1a. The shRNA sequence used was 5′-[…] […]-3′ (SEQ ID NO:1).
(§3) Even more, using notch signaling as a model of quiescence, the notch-induced increase in FAO was abrogated upon CPT1a KD.

CPT1a = molecular target: T1, CPT1a (Homo sapiens, UniProt P50416); experiment: CPT1a protein levels after shRNA knock down in ECs; format: cell-based
T1 construct: of the three isoforms, CPTla is the most abundant in ECs; endogenous in cells; host or cells: endothelial cells (ECs)
T1 sequence (P50416 1-773): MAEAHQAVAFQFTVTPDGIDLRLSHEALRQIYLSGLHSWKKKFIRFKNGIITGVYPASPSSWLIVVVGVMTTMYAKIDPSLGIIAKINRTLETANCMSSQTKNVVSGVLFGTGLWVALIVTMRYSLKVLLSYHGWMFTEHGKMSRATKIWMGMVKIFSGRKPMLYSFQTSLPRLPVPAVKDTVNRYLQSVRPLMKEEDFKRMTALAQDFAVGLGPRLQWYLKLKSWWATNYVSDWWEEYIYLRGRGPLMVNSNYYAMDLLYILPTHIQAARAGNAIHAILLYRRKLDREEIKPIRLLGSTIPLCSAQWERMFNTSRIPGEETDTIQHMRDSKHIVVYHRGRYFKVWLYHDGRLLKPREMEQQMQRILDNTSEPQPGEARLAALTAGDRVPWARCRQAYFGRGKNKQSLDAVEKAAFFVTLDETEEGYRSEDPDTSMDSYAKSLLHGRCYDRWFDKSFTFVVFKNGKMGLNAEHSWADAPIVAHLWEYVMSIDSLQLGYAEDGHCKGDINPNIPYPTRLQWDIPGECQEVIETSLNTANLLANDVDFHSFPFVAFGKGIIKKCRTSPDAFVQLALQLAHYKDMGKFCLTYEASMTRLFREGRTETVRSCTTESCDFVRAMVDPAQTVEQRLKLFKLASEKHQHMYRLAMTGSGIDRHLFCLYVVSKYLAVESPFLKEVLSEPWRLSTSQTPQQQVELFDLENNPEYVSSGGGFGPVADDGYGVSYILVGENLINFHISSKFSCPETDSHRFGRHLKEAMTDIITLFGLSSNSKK
From the text: as §2, §3

angiogenic EC monolayers = experiment: 3H thymidine incorporation assay (EC proliferation); format: cell-based
From the text: as §1, with “This effect was abrogated when spheroids were treated with mitomycin C.” left out

ECs [4] = experiment: Scratch wound assay and modified Boyden chamber (EC migration); format: cell-based; details: scratch wound assay, modified Boyden chamber
From the text: as §1, with “This effect was abrogated when spheroids were treated with mitomycin C.” left out

ECs [5] = experiment: Energy charge, ATP levels and AMPK phosphorylation in ECs; format: cell-based
From the text: Next, how fatty acid oxidation could exert its proliferation-dependent effects on vessel sprouting was questioned. Through fueling the TCA with […] molecules of acetyl-COA, 1 palmitate can generate much more ATP via oxidative phosphorylation compared to 1 glucose. However, as was shown previously, angiogenic ECs rely primarily on glycolysis for ATP production. Nevertheless, it was desired to rule out that the CPT1a-induced proliferation defect was caused by ATP depletion. […] One would also expect that whenever cells are in ATP distress, they would up-regulate a major ATP-producing pathway. […] Furthermore, no signs of energy distress were observed, as shown by AMPK-p, and no induction of autophagy was observed as measured by LC3.

ECs [6] = experiment: Intracellular H2O2 levels in ECs; format: cell-based
From the text: Proliferation requires many building blocks such as protein, RNA, DNA, . . . to allow duplication of one cell into two daughter cells. Up until now, the role of mitochondria in ECs was thought to be for signaling purposes and not so much for biomass production, as ECs are highly glycolytic. […] FAO can fuel the TCA cycle with […] molecules of acetyl COA, thereby providing plenty of intermediates for biomass as well as producing NADPH that can be used for anti-oxidant defense or lipid synthesis. […] However, this increase in ROS could not explain the proliferation defect as no DNA damage checkpoint was activated in these cells as measured by ATM-P, p53 and p21 levels. […] Therefore, it was hypothesized that blocking FAO would reduce TCA intermediates needed for biomass production. Even more, using ^13C palmitate, it was shown that CPT1a KD cells incorporate less 13C label in TCA intermediates and in biomass.

CC(=O)N[C@@H](CS)C(=O)O [NAC]
rescue of reduced sprouting upon CPT1a silencing in quiescent spheroids (EC spheroids; NICD overexpression model of quiescence): did rescue the phenotype

CC(=O)O [acetate]
rescue of reduced sprouting of CPT1a knock down spheroids (EC spheroids; 20 mM supplementation): rescued

CCOC(=O)[C@@]1(CCCCCCOc2ccc(Cl)cc2)CO1 [etomoxir]
14C palmitate uptake in organs [1]: significantly reduced | incorporation of 13C palmitate in TCA intermediates in organs [1]: significantly reduced | defects in the heart (H&E staining) [2]: did not cause any defects in the heart | reduction of neovascularization area [3]: less than 50% | pathological neovascular area (in words) ([3]; p<0.05): reduced the pathological neovascular area

shCPT1a: shRNA directed against CPT1a, SEQ ID NO:1: 5'-CCGGGCCATGAAGCTCTTAGACAAACTCGAGTTTGTCTAAGAGCTTCATGGCTTTTTG-3'
fatty acid oxidation (endothelial cells (ECs)): reduced fatty acid oxidation | fatty acid oxidation (endothelial cells (ECs); listed as shRNA directed against CPT1a): significantly reduced | CPT1a protein levels (CPT1a): nearly undetectable levels | proliferation (in words) (angiogenic EC monolayers): reduced proliferation | reduction of EC proliferation (angiogenic EC monolayers; angiogenic EC monolayers): 40% | EC migration (ECs [4]): no differences in migration | EC migration (ECs [4]; listed as CPT1a KD): not affected | vessel sprouting of EC spheroids (EC spheroids; collagen I matrix, growth factor stimulated): fewer and shorter sprouts | ATP distress (Western blot for AMPK phosphorylation) (ECs [5]): does not show any ATP distress | energy charge (ECs [5]): did not affect | increase in intracellular H2O2 levels (ECs [6]): 40%
